In patent US11596631B2, “CDK12 inhibitors and their uses” (The University of Nottingham, priority 2016, dated 2023):

What was measured:
[1] = test system: nuclear foci in DM1 fibroblasts; assay: nuclear foci assay (in situ hybridisation with Cy3 CAG10 probe, high content imaging); type: cell-based; settings: for activity in the nuclear foci assay (nuclear foci relative to DMSO treated cells): DM1 fibroblasts, 24 hours, dilution series; for reduction in foci on exposure for different lengths of time: 2 hours to 48 hours
Method: Using a previously reported assay the PKIS collection was screened for compounds that reduce nuclear foci and the compounds were then analysed for their known selectivity profiles to identify the common kinase targets (Ketley, A. et al. (2014). Hum Mol Genet, 23: 1551-1562). […] Following treatment, fluorescent in situ hybridisation was performed with a cy3 labelled CAG10 probe, to visualize nuclear foci and cells were analysed on a Molecular Devices plate reader with customised MetaExpress software (Ketley, A. et al. (2014). Hum Mol Genet, 23: 1551-1562). Compounds that reduced nuclear foci in a concentration dependent manner, compared to DMSO treated cells were identified and prioritized for further study.
[…] Plates were analysed on a Molecular Devices Micro High Content Imaging system, with nine fields imaged per well to give approximately 100 cells per well, per compound treatment. The nuclear area was identified by Hoechst stain and the number, size and intensity of foci was determined by scoring adjacent pixels that were 80 grayscales or more above background.

[2] = biological target: CDK9 (Homo sapiens, UniProt P50750); settings: previously reported IC50 values (FIG. 13); cited from earlier work
[3] = biological target: T1, CDK12 (Homo sapiens, UniProt Q9NYV4); assay: chemoproteomics dose-response competition binding with SNS-032 affinity matrix; settings: K562 or A204 cell extract, SNS-032 beads
T1 construct: endogenous in cells; host or cells: K562 or A204 cell extract
Text: FIG. 4: Chemoproteomics target deconvolution. IC50 values were generated by affinity capturing of kinases from K562 or A204 cell extract using beads derivatized with SNS-032, in the presence of different concentrations of free competing compound or vehicle (DMSO). pIC50 values are plotted against the pIC50 in the foci inhibition assay for each compound. A good correlation of kinase binding affinity with the inhibitory activity on foci is observed for CDKS, CDK7, CDK9, and CDK12. r: Pearson correlation coefficient; p: p-value (calculated probability).
To determine the specific CDKs responsible for the reduction of nuclear foci it was sought to expand the target coverage within the CDK family by the immobilization of two of the active compounds containing a suitable secondary amine; SNS-032 and AT7519 (FIG. 10). […] To confirm that the K562, A204 and DM1 cell lines express the same kinases a whole proteome analysis was conducted. All CDK/PCTK proteins identified by profiling were also identified in the cells used for the phenotypic foci assay as follows: […]
Affinity profiling was performed as described previously (Bantscheff, M. et al. (2007). Nat Biotechnol, 25: 1035-1044 and Bantscheff, M. et al. (2011). Nat Biotechnol, 29: 255-265). […] Proteins were alkylated, separated on 4-12% NuPAGE (Invitrogen), stained with colloidal Coomassie, and quantified by isobaric mass tagging and LC-MS/MS.

[4] = test system: mutant DMPK transcripts in DM1 fibroblast cells; assay: RT-PCR / BpmI assay for repeat expansion transcripts; type: cell-based
Method: (A) Ethidium bromide stained gel showing RT-PCR products from nuclear (N) and cytoplasmic (C) RNA fractions following amplification and BpmI digest of a fragment of DMPK. GAPDH is used as a loading control. […] (D) DM1 cells treated with SNS-032 for 2 hours.
Reverse transcription was performed using 1 μg total RNA from compound-treated and untreated cells. […] For Genescan analysis primer N11 was labelled with FAM. Amplification was performed with a Tm of 58° C. The PCR product was subsequently heated to 95° C. for 2 minutes followed by cooling to 4° C. For Bpml restriction digestion analysis of DMPK PCR products, 8 μl of PCR mixture was digested overnight with restriction enzyme Bpml (NEB) in a total reaction volume of 20 μl at 37° C. The final products were analysed by electrophoresis at 90V with 3% agarose gels and the density of bands quantified using ImageJ software or by fragment analysis on an AB1377 sequencer followed by Genescan quantification.

[5] = test system: HSALR mice; assay: inhibitor treatment in DM1 mouse model; type: in vivo; settings: compared to vehicle control animals
Method: FIG. 7: Inhibitor treatment in a DM1 mouse model (A) Combined myotonia grade scores in quadriceps, gastrocnemius and paraspinal muscles from HSALR mice following vehicle and dinaciclib compound treatment (n=6 per treatment group) (B) Myotonia grades by muscle type in dinaciclib and vehicle treated HSALR mice.
To establish the in vivo effect of this inhibitor HSA^LR mice were treated by intraperitoneal injection for a 28 day treatment period comprising 12 injections in total.

[6] = DM1 cells, 2 hours treatment, no recovery time

Sequence of CDK9 (P50750 whole entry): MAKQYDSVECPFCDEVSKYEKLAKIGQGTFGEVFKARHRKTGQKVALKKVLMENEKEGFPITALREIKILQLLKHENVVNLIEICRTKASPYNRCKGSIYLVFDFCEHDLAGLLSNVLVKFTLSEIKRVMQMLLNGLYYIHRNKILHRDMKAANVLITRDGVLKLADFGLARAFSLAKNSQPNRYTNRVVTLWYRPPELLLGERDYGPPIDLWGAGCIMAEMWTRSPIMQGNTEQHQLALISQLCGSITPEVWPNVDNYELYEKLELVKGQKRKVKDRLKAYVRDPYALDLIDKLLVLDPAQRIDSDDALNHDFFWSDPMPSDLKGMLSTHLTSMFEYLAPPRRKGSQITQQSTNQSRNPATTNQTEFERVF
Sequence of CDK9 (O60563 whole entry partner): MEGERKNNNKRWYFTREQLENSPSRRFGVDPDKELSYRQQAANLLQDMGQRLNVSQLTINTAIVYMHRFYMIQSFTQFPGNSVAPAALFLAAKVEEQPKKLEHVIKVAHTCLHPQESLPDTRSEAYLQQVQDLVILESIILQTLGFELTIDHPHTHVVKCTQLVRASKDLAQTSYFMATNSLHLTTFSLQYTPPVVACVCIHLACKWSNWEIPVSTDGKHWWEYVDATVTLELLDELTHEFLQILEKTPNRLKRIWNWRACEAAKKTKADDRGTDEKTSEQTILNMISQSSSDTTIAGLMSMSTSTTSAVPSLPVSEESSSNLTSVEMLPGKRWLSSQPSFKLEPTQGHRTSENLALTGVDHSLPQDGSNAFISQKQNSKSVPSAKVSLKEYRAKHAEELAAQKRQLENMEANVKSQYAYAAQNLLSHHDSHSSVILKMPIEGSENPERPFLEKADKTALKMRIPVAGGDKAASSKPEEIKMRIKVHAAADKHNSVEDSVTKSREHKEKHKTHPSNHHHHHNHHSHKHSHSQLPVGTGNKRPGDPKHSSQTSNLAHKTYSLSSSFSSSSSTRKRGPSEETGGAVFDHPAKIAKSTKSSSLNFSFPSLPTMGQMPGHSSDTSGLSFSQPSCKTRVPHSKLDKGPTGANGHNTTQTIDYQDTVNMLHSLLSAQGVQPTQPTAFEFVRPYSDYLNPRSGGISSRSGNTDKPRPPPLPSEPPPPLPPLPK
T1 sequence (Q9NYV4 whole entry): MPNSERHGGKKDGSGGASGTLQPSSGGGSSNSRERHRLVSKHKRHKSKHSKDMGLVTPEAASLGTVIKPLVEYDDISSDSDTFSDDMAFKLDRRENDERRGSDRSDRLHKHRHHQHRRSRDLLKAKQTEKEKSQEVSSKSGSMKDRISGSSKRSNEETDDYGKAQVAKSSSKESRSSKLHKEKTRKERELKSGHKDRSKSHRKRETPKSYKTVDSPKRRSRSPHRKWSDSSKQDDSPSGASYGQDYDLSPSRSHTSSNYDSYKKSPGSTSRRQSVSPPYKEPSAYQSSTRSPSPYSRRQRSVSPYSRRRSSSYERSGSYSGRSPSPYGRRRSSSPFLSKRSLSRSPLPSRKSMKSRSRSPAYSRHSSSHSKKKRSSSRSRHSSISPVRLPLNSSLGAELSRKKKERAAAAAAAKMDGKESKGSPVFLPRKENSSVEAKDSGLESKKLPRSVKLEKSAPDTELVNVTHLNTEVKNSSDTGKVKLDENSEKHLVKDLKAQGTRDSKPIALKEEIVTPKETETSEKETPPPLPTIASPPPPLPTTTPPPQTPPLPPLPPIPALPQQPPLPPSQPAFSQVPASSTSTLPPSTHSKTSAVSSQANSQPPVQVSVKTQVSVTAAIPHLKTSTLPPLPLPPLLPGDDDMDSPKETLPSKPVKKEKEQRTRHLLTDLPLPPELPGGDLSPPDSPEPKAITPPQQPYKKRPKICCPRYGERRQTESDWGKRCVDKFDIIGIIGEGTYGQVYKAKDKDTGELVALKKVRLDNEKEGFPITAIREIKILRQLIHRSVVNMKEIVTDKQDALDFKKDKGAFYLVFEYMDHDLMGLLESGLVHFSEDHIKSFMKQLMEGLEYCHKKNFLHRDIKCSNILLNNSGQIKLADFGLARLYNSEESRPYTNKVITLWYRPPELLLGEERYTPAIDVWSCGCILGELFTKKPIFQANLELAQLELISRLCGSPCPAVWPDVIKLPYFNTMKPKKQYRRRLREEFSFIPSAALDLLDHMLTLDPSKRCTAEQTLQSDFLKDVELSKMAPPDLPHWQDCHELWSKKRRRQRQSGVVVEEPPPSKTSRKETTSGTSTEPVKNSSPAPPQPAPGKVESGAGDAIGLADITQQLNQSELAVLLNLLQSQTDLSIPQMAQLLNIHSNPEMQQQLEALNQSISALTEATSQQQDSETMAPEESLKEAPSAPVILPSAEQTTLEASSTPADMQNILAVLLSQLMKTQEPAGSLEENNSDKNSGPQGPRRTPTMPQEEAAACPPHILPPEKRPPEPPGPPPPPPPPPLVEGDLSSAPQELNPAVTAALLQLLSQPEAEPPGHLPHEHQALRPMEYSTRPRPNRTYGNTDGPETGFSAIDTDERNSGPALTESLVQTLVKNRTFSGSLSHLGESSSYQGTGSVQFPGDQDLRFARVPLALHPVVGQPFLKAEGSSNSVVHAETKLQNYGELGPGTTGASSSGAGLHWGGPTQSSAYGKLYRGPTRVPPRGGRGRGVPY
T1 sequence (O75909 whole entry partner): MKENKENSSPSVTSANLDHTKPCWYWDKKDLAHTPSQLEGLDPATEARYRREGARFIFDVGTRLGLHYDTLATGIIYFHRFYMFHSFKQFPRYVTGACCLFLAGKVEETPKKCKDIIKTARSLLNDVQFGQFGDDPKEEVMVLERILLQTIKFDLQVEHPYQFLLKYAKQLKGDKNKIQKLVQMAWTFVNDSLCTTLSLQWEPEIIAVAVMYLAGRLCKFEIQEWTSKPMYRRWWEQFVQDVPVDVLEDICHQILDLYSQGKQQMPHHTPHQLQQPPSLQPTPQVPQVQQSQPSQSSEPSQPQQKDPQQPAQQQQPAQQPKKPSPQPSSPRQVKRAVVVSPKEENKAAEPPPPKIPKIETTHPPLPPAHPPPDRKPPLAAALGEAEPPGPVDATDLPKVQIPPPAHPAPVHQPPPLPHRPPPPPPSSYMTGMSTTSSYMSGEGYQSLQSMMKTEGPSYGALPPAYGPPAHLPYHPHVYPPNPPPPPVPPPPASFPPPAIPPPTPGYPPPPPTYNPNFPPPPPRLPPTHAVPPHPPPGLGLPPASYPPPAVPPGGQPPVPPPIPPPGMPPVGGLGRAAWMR

Row | activity against the CDK family, in particular CDK12 [3] | SMILES | activity in the nuclear foci assay (nuclear foci relative to DMSO treated cells) [1] | potency against CDK9 [2] | cells without nuclear foci ([1]; DM1 cells, 2 hours treatment, 48 hours recovery) [%] | cells without nuclear foci ([1]; DM1 cells, 2 hours treatment, 72 hours recovery) [%] | cells with more than 5 foci [1, 6] [%] | cells with no foci [1, 6] [%] | treatment time after which foci reduction was effective ([1]; DM1 fibroblast cells) [h] | reduction in foci on exposure for different lengths of time ([1]; DM1 fibroblast cells) | location of repeat expansion transcripts after treatment (nuclear and cytoplasmic extracts) [4] | decrease in the relative proportion of repeat expansion transcripts compared to wild type transcripts in the nucleus ([4]; 1 μM, 24 hours, Genescan) [%] | centralised nuclei in muscle fibres (laminin stain) [5]
1 | – | O=C(NC1CCNCC1)c1[nH]ncc1NC(=O)c1c(Cl)cccc1Cl [AT-7519] | high activity | highest potency | – | – | – | – | – | – | – | – | –
2 | – | CC(C)(C)c1cnc(CSc2cnc(NC(=O)C3CCNCC3)s2)o1 [SNS-032] | high activity | highest potency | 14 | 36 | 28 | 10 | 2 | significant reduction in foci | – | – | –
3 | most active inhibitor | CCc1cnn2c(NCc3ccc[n+]([O-])c3)cc(N3CCCC[C@H]3CCO)nc12 [dinaciclib] | significantly increased activity | – | – | – | – | – | – | significant reduction in foci | still retained within the nuclear fraction | 59 | reduction in centralised nuclei
